Experimental data as given in patent US10821115B2, “Compounds that inhibit Mcl-1 protein” (priority 2017, dated 2020).
Like-named read-outs stand apart in the source and are kept apart here.

Tests used:
[1] = biological target: recombinant human Mcl-1 (residues 171-327) / Bim interaction (Homo sapiens (Human), UniProt Q07820); test: biochemical; format: binding; conditions: read-out: Mcl-1 HTRF IC50
[2] = test system: human multiple myeloma cell line, OPM-2; test: Cell viability assay (OPM-2 10 FBS), CellTiter-Glo; format: cell-based
Procedure, shortened: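 Steps: plate cells at 3000/well in 10% FBS growth medium, add serially diluted compound, incubate 16 h at 37 °C with 5% CO2, add detection reagent and read luminescence after 25 min. A 4-parameter logistic model gives IC50.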

[3] = TR-FRET, Mcl-1(171-327) / biotin-Bim (51-76)
[4] = Homo sapiens, OPM-2, 16 h, read-out: OPM-2 10% FBS IC50 IP, OPM-2 cells, 10% FBS, 16 h, CellTiter-Glo
[5] = 0.1 nM Mcl-1(171-327), 0.05 nM biotin-Bim (51-76)
[6] = Homo sapiens, OPM-2, 16 h, read-out: OPM-2 10% FBS IC50 IP, OPM-2 cells, 10% FBS, 16 h incubation

Chain of recombinant human Mcl-1 (residues 171-327) / Bim interaction (Q07820 171-327): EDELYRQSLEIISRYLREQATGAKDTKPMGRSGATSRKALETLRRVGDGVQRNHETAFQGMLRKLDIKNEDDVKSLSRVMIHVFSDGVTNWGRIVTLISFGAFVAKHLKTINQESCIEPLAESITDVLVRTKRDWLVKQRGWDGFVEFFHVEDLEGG

| SMILES | IC50 [1, 3] [nM] | IC50 [2, 4] [nM] | IC50 [1, 5] [nM] | IC50 [2, 6] [nM] | IC50 ([2]; read-out: OPM-2 10% FBS IC50 IP, OPM-2 cells, 10% FBS, 16 h, CellTiter-Glo) [nM] |
| --- | --- | --- | --- | --- | --- |
| CO[C@@]1(CS(C)(=O)=O)/C=C/C[C@H](C)[C@@H](C)S(=O)(=O)NC(=O)c2ccc3c(c2)N(C[C@@H]2CC[C@H]21)C[C@@]1(CCCc2cc(Cl)ccc21)CO3 [Example 100459, (1S,3′R,6′R,7′S,8′E,11′S,12′R)-6-chloro-7′-methoxy-11′,12′-dimethyl-7′-((methylsulfonyl)methyl)-3,4-dihydro-2H,15′H-spiro[naphthalene-1,22′-[20]oxa[13]thia[1,14]diazatetracyclo [14.7.2.0~3,6~.0~19,24~]pentacosa[8,16,18,24]tetraen]-15′-one 13′,13′-dioxide] | 0.685 | 732 |  |  |  |
| CCOC1(CN2CCN(C(C)C)CC2)/C=C/C[C@H](C)[C@@H](C)S(=O)(=O)NC(=O)c2ccc3c(c2)N(C[C@@H]2CC[C@H]21)C[C@@]1(CCCc2cc(Cl)ccc21)CO3 (stereo in doubt) [Example 115, (1S,3′R,6′R,7′R,8′E,11′S,12′R)-6-chloro-7′-ethoxy-11′,12′-dimethyl-7′-((4-(1-methylethyl)-1-piperazinyl)methyl)-3,4-dihydro-2H,15′H-spiro[naphthalene-1,22′-[20]oxa[13]thia[1,14]diazatetracyclo [14.7.2.0~3,6~.0~19,24~]pentacosa[8,16,18,24]tetraen]-15′-one 13′,13′-dioxide] |  |  | 1.37 | 686 |  |
| C[C@@H]1[C@@H](C)C/C=C/[C@@](O)(CC(=O)N2CC(F)(F)C2)[C@@H]2CC[C@H]2CN2C[C@@]3(CCCc4cc(Cl)ccc43)COc3ccc(cc32)C(=O)NS1(=O)=O [Example 100297, (1S,3′R,6′R,7′S,8′E,11′S,12′R)-6-chloro-7′-(2-(3,3-difluoro-1-azetidinyl)-2-oxoethyl)-7′-hydroxy-11′,12′-dimethyl-3,4-dihydro-2H,15′H-spiro[naphthalene-1,22′-[20]oxa[13]thia[1,14]diazatetracyclo [14.7.2.0~3,6~.0~19,24~]pentacosa[8,16,18,24]tetraen]-15′-one 13′,13′-dioxide] | 0.115 | 168 |  |  |  |
| C[C@@H]1[C@@H](C)CCC[C@@](O)(CC(=O)N2CCOC2=O)[C@@H]2CC[C@H]2CN2C[C@@]3(CCCc4cc(Cl)ccc43)COc3ccc(cc32)C(=O)NS1(=O)=O [Example 100153, (1S,3′R,6′R,7′R,11′S,12′R)-6-chloro-7′-hydroxy-11′,12′-dimethyl-7′-(2-oxo-2-(2-oxo-1,3-oxazolidin-3-yl)ethyl)-3,4-dihydro-2H,15′H-spiro[naphthalene-1,22′-[20]oxa[13]thia[1,14]diazatetracyclo [14.7.2.0~3,6~.0~19,24~]pentacosa[16,18,24]trien]-15′-one 13′,13′-dioxide] | 0.738 |  |  |  | 4660 |
| COC(=O)C[C@]1(O)/C=C/C[C@H](C)[C@@H](C)S(=O)(=O)NC(=O)c2ccc3c(c2)N(C[C@@H]2CC[C@H]21)C[C@@]1(CCCc2cc(Cl)ccc21)CO3 [Example 100288, methyl ((1S,3′R,6′R,7′S,8′E,11′S,12′R)-6-chloro-7′-hydroxy-11′,12′-dimethyl-13′,13′-dioxido-15′-oxo-3,4-dihydro-2H-spiro[naphthalene-1,22′-[20]oxa[13]thia[1,14]diazatetracyclo [14.7.2.0~3,6~.0~19,24~]pentacosa[8,16,18,24]tetraen]-7′-yl)acetate] | 0.103 | 89 |  |  |  |
| CO[C@@]1(CN2CCc3[nH]nnc3C2)/C=C/C[C@H](C)[C@@H](C)S(=O)(=O)NC(=O)c2ccc3c(c2)N(C[C@@H]2CC[C@H]21)C[C@@]1(CCCc2cc(Cl)ccc21)CO3 [Example 205, (1S,3′R,6′R,7′S,8′E,11′S,12′R)-6-chloro-7′-methoxy-11′,12′-dimethyl-7′-(1,4,6,7-tetrahydro-5H-[1,2,3]triazolo[4,5-c]pyridin-5-ylmethyl)-3,4-dihydro-2H,15′H-spiro[naphthalene-1,22′-[20]oxa[13]thia[1,14]diazatetracyclo [14.7.2.0~3,6~.0~19,24~]pentacosa[8,16,18,24]tetraen]-15′-one 13′,13′-dioxide] |  |  | 0.263 | 437 |  |
| CO[C@]1(C2SCCCS2)/C=C/[C@H](C)[C@H](C)CS(=O)(=O)NC(=O)c2ccc3c(c2)N(C[C@@H]2CC[C@H]21)C[C@@]1(CCCc2cc(Cl)ccc21)CO3 [Example 100569, (1S,3′R,6′R,7′R,8′E,10′S,11′S)-6-chloro-7′-(1,3-dithian-2-yl)-7′-methoxy-10′,11′-dimethyl-3,4-dihydro-2H,15′H-spiro[naphthalene-1,22′-[20]oxa[13]thia[1,14]diazatetracyclo [14.7.2.0~3,6~.0~19,24~]pentacosa[8,16,18,24]tetraen]-15′-one 13′,13′-dioxide] | 2.48 | 2000 |  |  |  |
| C[C@@H]1[C@@H](C)C/C=C/[C@@](O)(CN2CCN3CCCC[C@@H]3C2)[C@@H]2CC[C@H]2CN2C[C@@]3(CCCc4cc(Cl)ccc43)COc3ccc(cc32)C(=O)NS1(=O)=O (racemic) [Example 236] |  |  | 0.097 | 87 |  |
| C[C@@H]1[C@@H](C)C/C=C/[C@](O)(c2ncnn2C)[C@@H]2CC[C@H]2CN2C[C@@]3(CCCc4cc(Cl)ccc43)COc3ccc(cc32)C(=O)NS1(=O)=O [Example 100221, (1S,3′R,6′R,7′R,8′E,11′S,12′R)-6-chloro-7′-hydroxy-11′,12′-dimethyl-7′-(1-methyl-1H-1,2,4-triazol-5-yl)-3,4-dihydro-2H,15′H-spiro[naphthalene-1,22′-[20]oxa[13]thia[1,14]diazatetracyclo [14.7.2.0~3,6~.0~19,24~]pentacosa[8,16,18,24]tetraen]-15′-one 13′,13′-dioxide] | 0.525 | 776 |  |  |  |
| CO[C@@]1(CN2CCN(c3ccccn3)CC2)/C=C/C[C@H](C)[C@@H](C)S(=O)(=O)NC(=O)c2ccc3c(c2)N(C[C@@H]2CC[C@H]21)C[C@@]1(CCCc2cc(Cl)ccc21)CO3 [Example 252, (1S,3′R,6′R,7′S,8′E,11′S,12′R)-6-chloro-7′-methoxy-11′,12′-dimethyl-7′-((4-(2-pyridinyl)-1-piperazinyl)methyl)-3,4-dihydro-2H,15′H-spiro[naphthalene-1,22′-[20]oxa[13]thia[1,14]diazatetracyclo [14.7.2.0~3,6~.0~19,24~]pentacosa[8,16,18,24]tetraen]-15′-one 13′,13′-dioxide] |  |  | 1.38 | 1800 |  |
| CO[C@@]1(CN2CCN(C3COC3)CC2)/C=C/[C@H](C)[C@H](C)CS(=O)(=O)NC(=O)c2ccc3c(c2)N(C[C@@H]2CC[C@H]21)C[C@@]1(CCCc2cc(Cl)ccc21)CO3 [Example 158, (1S,3′R,6′R,7′S,8′E,10′S,11′S)-6-chloro-7′-methoxy-10′,11′-dimethyl-7′-((4-(3-oxetanyl)-1-piperazinyl)methyl)-3,4-dihydro-2H,15′H-spiro[naphthalene-1,22′-[20]oxa[13]thia[1,14]diazatetracyclo [14.7.2.0~3,6~.0~19,24~]pentacosa[8,16,18,24]tetraen]-15′-one 13′,13′-dioxide] |  |  | 0.092 | 18 |  |
| CO[C@@]1(CN2CC(C)(C#N)C2)/C=C/C[C@H](C)[C@@H](C)S(=O)(=O)NC(=O)c2ccc3c(c2)N(C[C@@H]2CC[C@H]21)C[C@@]1(CCCc2cc(Cl)ccc21)CO3 [Example 67, 1-(((1S,3′R,6′R,7′S,8′E,11′S, 12′R)-6-chloro-7′-methoxy-11′,12′-dimethyl-13′,13′-dioxido-15′-oxo-3,4-dihydro-2H-spiro[naphthalene-1,22′-[20]oxa[13]thia[1,14]diazatetracyclo [14.7.2.0~3,6~.0~19,24~]pentacosa[8,16,18,24]tetraen]-7′-yl)methyl)-3-methyl-3-azetidinecarbonitrile] |  |  | 0.197 | 149 |  |
| C[C@@H]1[C@@H](C)C/C=C/[C@](O)(C2CC2)[C@@H]2CC[C@H]2CN2C[C@@]3(CCCc4cc(Cl)ccc43)COc3ccc(cc32)C(=O)NS1(=O)=O [Example 100213, (1S,3′R,6′R,7′R,8′E,11′S,12′R)-6-chloro-7′-cyclopropyl-7′-hydroxy-11′,12′-dimethyl-3,4-dihydro-2H,15′H-spiro[naphthalene-1,22′-[20]oxa[13]thia[1,14]diazatetracyclo [14.7.2.0~3,6~.0~19,24~]pentacosa[8,16,18,24]tetraen]-15′-one 13′,13′-dioxide] | 2.84 | 2020 |  |  |  |
| COCC[C@@H]1[C@@H](C)C/C=C/[C@](CN2CCN(C)CC2)(OC)[C@@H]2CC[C@H]2CN2C[C@@]3(CCCc4cc(Cl)ccc43)COc3ccc(cc32)C(=O)NS1(=O)=O [Example 180, (1S,3′R,6′R,7′S,8′E,11′S,12′R)-6-chloro-7′-methoxy-12′-(2-methoxyethyl)-11′-methyl-7′-((4-methyl-1-piperazinyl)methyl)-3,4-dihydro-2H,15′H-spiro[naphthalene-1,22′-[20]oxa[13]thia[1,14]diazatetracyclo [14.7.2.0~3,6~.0~19,24~]pentacosa[8,16,18,24]tetraen]-15′-one 13′,13′-dioxide] |  |  | 0.106 | 81 |  |
| CCOC(=O)COC[C@]1(OCC(=O)OCC)CCCC[C@@H](CC)S(=O)(=O)NC(=O)c2ccc3c(c2)N(C[C@@H]2CC[C@H]21)C[C@@]1(CCCc2cc(Cl)ccc21)CO3 [Example 100042, ethyl (((1S,3′R,6′R,7′S,12′R)-6-chloro-7′-(2-ethoxy-2-oxoethoxy)-12′-ethyl-13′,13′-dioxido-15′-oxo-3,4-dihydro-2H-spiro[naphthalene-1,22′-[20]oxa[13]thia[1,14]diazatetracyclo [14.7.2.0~3,6~.0~19,24~]pentacosa[16,18,24]trien]-7′-yl)methoxy)acetate] | 4.86 | 2220 |  |  |  |
